From article PMC11460632, “Chemical modification of hyaluronan oligosaccharides differentially modulates hyaluronan–hyaladherin interactions” (The Journal of Biological Chemistry, 2024)
Entries after “also recorded” stand apart in the source; their conditions may differ. Where two headings read alike, the source gives them in different places.

Assays:
[1] = target: T1, Link_TSG6 (Homo sapiens, UniProt P98066); assay: ITC of HA oligosaccharides binding to Link_TSG6; settings: for N / ΔG / ΔH / −TΔS / Kd: 25 °C, 5 mM MES pH 6.0, mean ± SEM; for N: 0.029 mM Link_TSG6, 0.29 mM oligosaccharide; for N / Kd: four titrations; for Kd: read-out: KD; for % Binding affinity Link_TSG6: Table 6, relative to unmodified oligosaccharide of the same length, by ITC
T1 construct: made in house
T1 sequence (P98066 36-129 limits assumed): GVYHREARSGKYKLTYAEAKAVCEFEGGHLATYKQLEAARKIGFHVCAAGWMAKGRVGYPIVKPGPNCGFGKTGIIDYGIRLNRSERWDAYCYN
Protocol: ITC experiments were performed using a MicroCal PEAQ-ITC instrument (Malvern Instruments). Oligosaccharide stock solutions were prepared at 0.29 mM (in 5 mM MES, pH 6.0) and injected (18 × 2 μl with 120 s spacing between injections) into the cell containing ∼200 μl Link_TSG6 (0.029 mM) in matched buffer at 25 °C. Data were fit to a one site binding model, after subtracting the heats from the last three injections to account for heat of dilution of the oligosaccharide into buffer. Each oligosaccharide was analyzed in four independently performed ITC experiments.

[2] = target: T2, recombinant human TSG-6 (Homo sapiens, UniProt P19827+P98066); assay: In vitro HC-transfer assay (IαI + rhTSG-6, Western blot anti-HC1); format: biochemical; settings: 15 μM HA, 1.8 μM IαI, rhTSG-6, 2 h at 37 °C; for Substrate for HC transfer: Table 6; for Activity as substrate for HC transfer (text): Western blot anti-HC1
T2 construct: TSG-6–mediated HC-transfer assays (using full-length TSG6); purchased R&D Systems
T2 sequence (P98066 18-277): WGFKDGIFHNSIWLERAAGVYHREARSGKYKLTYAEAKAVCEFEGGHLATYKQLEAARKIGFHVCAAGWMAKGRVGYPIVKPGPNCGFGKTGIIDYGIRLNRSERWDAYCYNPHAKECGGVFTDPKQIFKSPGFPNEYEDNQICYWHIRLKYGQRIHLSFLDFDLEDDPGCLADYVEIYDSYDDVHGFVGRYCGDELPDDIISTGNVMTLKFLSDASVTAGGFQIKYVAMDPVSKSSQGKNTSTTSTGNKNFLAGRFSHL
T2 sequence (P19827 35-672 limits assumed): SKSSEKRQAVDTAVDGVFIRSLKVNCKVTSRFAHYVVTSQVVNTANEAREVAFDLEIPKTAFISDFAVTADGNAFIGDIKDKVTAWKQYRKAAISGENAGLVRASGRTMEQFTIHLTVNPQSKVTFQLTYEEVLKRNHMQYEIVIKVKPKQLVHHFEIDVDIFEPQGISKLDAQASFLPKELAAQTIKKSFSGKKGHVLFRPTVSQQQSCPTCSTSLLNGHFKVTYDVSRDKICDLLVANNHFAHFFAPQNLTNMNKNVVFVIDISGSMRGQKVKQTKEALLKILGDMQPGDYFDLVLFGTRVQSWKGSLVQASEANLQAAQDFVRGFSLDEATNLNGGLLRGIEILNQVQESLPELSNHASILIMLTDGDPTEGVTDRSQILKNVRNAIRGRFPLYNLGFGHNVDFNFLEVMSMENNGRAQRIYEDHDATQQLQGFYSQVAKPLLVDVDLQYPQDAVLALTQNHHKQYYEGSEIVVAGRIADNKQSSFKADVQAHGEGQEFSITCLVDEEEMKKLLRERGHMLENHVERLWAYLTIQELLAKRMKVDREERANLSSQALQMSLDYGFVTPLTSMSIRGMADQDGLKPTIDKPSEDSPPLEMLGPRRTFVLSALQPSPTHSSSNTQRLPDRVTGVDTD
Protocol: Covalent transfer of HC from IαI onto unmodified and chemically modified HA oligosaccharides was analyzed using the assay described previously ([26]). All reactions were performed using a buffer of 20 mM Hepes, pH 7.5, 150 mM NaCl, and 5 mM MgCl2. In a “standard” assay, HA oligosaccharides were at 15 μM, human IαI ([97]) 1.8 at μM (based on a molecular weight of 180 kDa), and recombinant human TSG-6 (R&D Systems) at 2.8 μM (based on a molecular weight of 35 kDa). Reaction mixtures were analyzed by SDS-PAGE using 4 to 12% bis-tris polyacrylamide gels (Invitrogen). For Western blot analysis, proteins were transferred onto nitrocellulose membrane (GE Healthcare) and incubated with antisera against HC1 (CP7, 1:10,000; ([98])). Bound primary antibody was detected using goat-anti-rabbit IgG conjugated to IR dye (LI-COR Biosciences) and blots imaged using an Odyssey Clx near-IR fluorescence imaging system (LICOR Biosciences).

[3] = target: T3, hisCD44_HABD^20–169 (Homo sapiens, UniProt P16070); assay: MST of HA oligosaccharides binding to hisCD44_HABD^20–169; settings: for Kd: 10 mM Hepes pH 7.5, 150 mM NaCl, 0.05% Tween-20, 25 °C, three titrations, read-out: KD; for % Binding affinity hisCD44_HABD^20–169: Table 6, relative to unmodified oligosaccharide of the same length, by MST
T3 construct: A novel construct consisting of residues 20 to 169 of human CD44 and an N-terminal six-histidine tag; made in house
T3 sequence (P16070 20-169): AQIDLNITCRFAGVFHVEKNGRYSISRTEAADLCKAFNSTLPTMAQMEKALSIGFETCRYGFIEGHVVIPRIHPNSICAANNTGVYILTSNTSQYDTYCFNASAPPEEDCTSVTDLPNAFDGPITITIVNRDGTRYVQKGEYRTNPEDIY
Protocol: For hisCD44_HABD^20–169, interactions with HA oligosaccharides were assessed using MST. Protein (200 nM) was labeled with 5 μM red-Tris-NTA-650 dye following the manufacturer’s instructions in 10 mM Hepes, pH 7.4, 150 mM NaCl, 0.05% (v/v) Tween-20 (interaction buffer). Stock solutions of HA oligosaccharides (5 mM in interaction buffer) were serially diluted (1:1 in interaction buffer) 16 times before each concentration was mixed with an equal volume of labeled protein (10 nM final concentration hisCD44_HABD^20–169). Samples were loaded into standard glass capillaries (NanoTemper) and thermophoresis measured at 25 °C (with active temperature control) using a Monolith NT.115pico instrument (NanoTemper) running NT Control software (version 1.0.1). All experiments were performed in triplicate and data analyzed with the “KD fit model” in the NT Analysis software (version 2.0.2).

CC(=O)N[C@H]1[C@H](O[C@H]2[C@H](O)[C@@H](O)[C@H](O[C@H]3[C@H](O)[C@@H](CO)O[C@@H](O[C@H]4[C@H](O)[C@@H](O)[C@H](O[C@@H]([C@H](O)[C@H](O)CO)[C@H](CNc5cc[nH]n5)NC(C)=O)O[C@@H]4C(=O)O)[C@@H]3NC(C)=O)O[C@@H]2C(=O)O)O[C@H](CO)[C@@H](O)[C@@H]1O[C@@H]1O[C@H](C(=O)O)[C@@H](O)[C@H](O)[C@H]1O [HA6-3APY]
N ([1]; Table 4, ITC): 0.93 ± 0.02 | ΔG ([1]; Table 4, ITC): -7.77 ± 0.15 kcal/mol | ΔH ([1]; Table 4, ITC): -7.82 ± 0.73 kcal/mol | −TΔS ([1]; Table 4, ITC): 0.04 ± 0.87 kcal•mol^a1 | Kd ([1]; Table 4, ITC): 2.24 ± 0.68 µM | % Binding affinity Link_TSG6 [1]: 49% | Substrate for HC transfer [2]: Yes | Activity as substrate for HC transfer (text) [2]: good substrates; also recorded: could become covalently coupled to an HC | % of binding to hisCD44_HABD^20–169 compared to the unmodified oligosaccharide of the same length ([3]; MST): 91% | % HAx^AN: percentage of binding affinity (KB) compared to the unmodified oligosaccharide of the same length ([3]; Table 5, MST): 91% | Kd ([3]; Table 5, MST, mean ± SD): 113 ± 6 µM | % Binding affinity hisCD44_HABD^20–169 [3]: 91%

CC(=O)N[C@H]1[C@H](O[C@H]2[C@H](O)[C@@H](O)[C@H](O[C@H]3[C@H](O)[C@@H](CO)O[C@@H](O[C@H]4[C@H](O)[C@@H](O)[C@H](O[C@@H]([C@H](O)[C@H](O)CO)[C@H](CNc5cccc6c5CCC6)NC(C)=O)O[C@@H]4C(=O)O)[C@@H]3NC(C)=O)O[C@@H]2C(=O)O)O[C@H](CO)[C@@H](O)[C@@H]1O[C@@H]1O[C@H](C(=O)O)[C@@H](O)[C@H](O)[C@H]1O [HA6-4AI]
N ([1]; Table 4, ITC): 0.97 ± 0.03 | ΔG ([1]; Table 4, ITC): -7.98 ± 0.03 kcal/mol | ΔH ([1]; Table 4, ITC): -7.16 ± 0.32 kcal/mol | −TΔS ([1]; Table 4, ITC): −0.82 ± 0.30 kcal•mol^a1 | Kd ([1]; Table 4, ITC): 1.42 ± 0.06 µM | % Binding affinity Link_TSG6 [1]: 77% | Substrate for HC transfer [2]: No | Activity as substrate for HC transfer (text) [2]: No HC•HA6 complexes were observed | % of binding to hisCD44_HABD^20–169 compared to the unmodified oligosaccharide of the same length ([3]; MST): 28% | % HAx^AN: percentage of binding affinity (KB) compared to the unmodified oligosaccharide of the same length ([3]; Table 5, MST): 28% | Kd ([3]; Table 5, MST, mean ± SD): 369 ± 43 µM | % Binding affinity hisCD44_HABD^20–169 [3]: 28%

CC(=O)N[C@H]1[C@H](O[C@H]2[C@H](O)[C@@H](O)[C@H](O[C@H]3[C@H](O)[C@@H](CO)O[C@@H](O[C@H]4[C@H](O)[C@@H](O)[C@H](O[C@@H]([C@H](O)[C@H](O)CO)[C@H](CNc5ccc6c(c5)CCC6)NC(C)=O)O[C@@H]4C(=O)O)[C@@H]3NC(C)=O)O[C@@H]2C(=O)O)O[C@H](CO)[C@@H](O)[C@@H]1O[C@@H]1O[C@H](C(=O)O)[C@@H](O)[C@H](O)[C@H]1O [HA6-5AI]
% of binding to Link_TSG6 compared to the unmodified oligosaccharide of the same length ([1]; ITC): ~162% | N ([1]; Table 4, ITC): 1.03 ± 0.02 | ΔG ([1]; Table 4, ITC): -8.43 ± 0.08 kcal/mol | ΔH ([1]; Table 4, ITC): -7.46 ± 0.37 kcal/mol | −TΔS ([1]; Table 4, ITC): −0.96 ± 0.42 kcal•mol^a1 | Kd ([1]; Table 4, ITC): 0.68 ± 0.08 µM | % Binding affinity Link_TSG6 [1]: 162% | Substrate for HC transfer [2]: No | Activity as substrate for HC transfer (text) [2]: No HC•HA6 complexes were observed | % of binding to hisCD44_HABD^20–169 compared to the unmodified oligosaccharide of the same length ([3]; MST): 133% | Fold increase in affinity for CD44_HABD compared to the unmodified oligosaccharide ([3]; MST): 1.3 fold | % HAx^AN: percentage of binding affinity (KB) compared to the unmodified oligosaccharide of the same length ([3]; Table 5, MST): 133% | Kd ([3]; Table 5, MST, mean ± SD): 77 ± 12 µM | % Binding affinity hisCD44_HABD^20–169 [3]: 133%

CC(=O)N[C@H]1[C@H](O[C@H]2[C@H](O)[C@@H](O)[C@H](O[C@H]3[C@H](O)[C@@H](CO)O[C@@H](O[C@H]4[C@H](O)[C@@H](O)[C@H](O[C@H]5[C@H](O)[C@@H](CO)OC(O)[C@@H]5NC(C)=O)O[C@@H]4C(=O)O)[C@@H]3NC(C)=O)O[C@@H]2C(=O)O)O[C@H](CO)[C@@H](O)[C@@H]1O[C@@H]1O[C@H](C(=O)O)[C@@H](O)[C@H](O)[C@H]1O (stereo partly shown) [HA6^AN, reference compound]
N ([1]; Table 1, ITC): 1.04 ± 0.04 | ΔG ([1]; Table 1, ITC): -8.13 ± 0.02 kcal/mol | ΔH ([1]; Table 1, ITC): -8.29 ± 0.19 kcal/mol | −TΔS ([1]; Table 1, ITC): 0.162 ± 0.21 kcal/mol | Kd ([1]; Table 1, ITC): 1.09 ± 0.04 µM | −TΔS ([1]; Table 4, ITC): 0.162 ± 0.21 kcal•mol^a1 | % Binding affinity Link_TSG6 [1]: 100% | Substrate for HC transfer [2]: No | Activity as substrate for HC transfer (text) [2]: did not | % HAn^AN: percentage of binding affinity (KB) compared to the unmodified oligosaccharide of the same length ([3]; Table 2, MST): 100% | Kd ([3]; Table 2, MST, mean (±SD)): 103 µM | % HAx^AN: percentage of binding affinity (KB) compared to the unmodified oligosaccharide of the same length ([3]; Table 5, MST): 100% | % Binding affinity hisCD44_HABD^20–169 [3]: 100%

COc1ccc(C(=O)O)c(NC[C@H](NC(C)=O)[C@@H](O[C@@H]2O[C@H](C(=O)O)[C@@H](O[C@@H]3O[C@H](CO)[C@@H](O)[C@H](O[C@@H]4O[C@H](C(=O)O)[C@@H](O[C@@H]5O[C@H](CO)[C@@H](O)[C@H](O[C@@H]6O[C@H](C(=O)O)[C@@H](O[C@@H]7O[C@H](CO)[C@@H](O)[C@H](O[C@@H]8O[C@H](C(=O)O)[C@@H](O)[C@H](O)[C@H]8O)[C@H]7NC(C)=O)[C@H](O)[C@H]6O)[C@H]5NC(C)=O)[C@H](O)[C@H]4O)[C@H]3NC(C)=O)[C@H](O)[C@H]2O)[C@H](O)[C@H](O)CO)c1 [HA8-2A4MBA]
% of binding to Link_TSG6 compared to the unmodified oligosaccharide of the same length ([1]; ITC): 21% | Fold reduction in affinity for Link_TSG6 compared to the unmodified oligosaccharide ([1]; ITC): 4.8 fold | N ([1]; Table 4, ITC): 1.04 ± 0.08 | ΔG ([1]; Table 4, ITC): -8.23 ± 0.40 kcal/mol | ΔH ([1]; Table 4, ITC): -8.06 ± 1.55 kcal/mol | −TΔS ([1]; Table 4, ITC): −0.16 ± 1.94 kcal•mol^a1 | Kd ([1]; Table 4, ITC): 1.46 ± 0.96 µM | % Binding affinity Link_TSG6 [1]: 21% | Substrate for HC transfer [2]: Yes | % of binding to hisCD44_HABD^20–169 compared to the unmodified oligosaccharide of the same length ([3]; MST): 141% | Fold increase in affinity for CD44_HABD compared to the unmodified oligosaccharide ([3]; MST): 1.4 fold | % HAx^AN: percentage of binding affinity (KB) compared to the unmodified oligosaccharide of the same length ([3]; Table 5, MST): 141% | Kd ([3]; Table 5, MST, mean ± SD): 36 ± 9 µM | % Binding affinity hisCD44_HABD^20–169 [3]: 141%

CC(=O)N[C@H]1[C@H](O[C@H]2[C@H](O)[C@@H](O)[C@H](O[C@H]3[C@H](O)[C@@H](CO)O[C@@H](O[C@H]4[C@H](O)[C@@H](O)[C@H](O[C@H]5[C@H](O)[C@@H](CO)O[C@@H](O[C@H]6[C@H](O)[C@@H](O)[C@H](O[C@@H]([C@H](O)[C@H](O)CO)[C@H](CNc7cc[nH]n7)NC(C)=O)O[C@@H]6C(=O)O)[C@@H]5NC(C)=O)O[C@@H]4C(=O)O)[C@@H]3NC(C)=O)O[C@@H]2C(=O)O)O[C@H](CO)[C@@H](O)[C@@H]1O[C@@H]1O[C@H](C(=O)O)[C@@H](O)[C@H](O)[C@H]1O [HA8-3APY]
N ([1]; Table 4, ITC): 1.19 ± 0.06 | ΔG ([1]; Table 4, ITC): -8.97 ± 0.07 kcal/mol | ΔH ([1]; Table 4, ITC): -5.70 ± 0.34 kcal/mol | −TΔS ([1]; Table 4, ITC): −3.28 ± 0.28 kcal•mol^a1 | Kd ([1]; Table 4, ITC): 0.27 ± 0.03 µM | % Binding affinity Link_TSG6 [1]: 115% | Substrate for HC transfer [2]: Yes | % of binding to hisCD44_HABD^20–169 compared to the unmodified oligosaccharide of the same length ([3]; MST): 23% | % HAx^AN: percentage of binding affinity (KB) compared to the unmodified oligosaccharide of the same length ([3]; Table 5, MST): 23% | Kd ([3]; Table 5, MST, mean ± SD): 220 ± 22 µM | % Binding affinity hisCD44_HABD^20–169 [3]: 23%
